Laboratory results: ChEMBL document CHEMBL3872251, “Computational approach for the assessment of inhibitory potency against beta-amyloid aggregation” (Bioorg Med Chem Lett, 2017)

Experiments:
[1] = Inhibition of Tg2576 mouse amyloid beta40 aggregation measured after 3 days by ELISA
Homo sapiens = species: Homo sapiens; assay: Inhibition of amyloid beta (17 to 42) (unknown origin) aggregation at 10 uM by thioflavin T-based fluorimetric assay

SMILES: COc1cc(/C=C/C(=O)CC(=O)/C=C/c2ccc(O)c(OC)c2)ccc1O [CURCUMIN]
- IC50 [1]: 1000 nM

SMILES: c1ccc(CN2CCC(NCCCCCCn3ccc4ccccc43)CC2)cc1
- inhibition (Homo sapiens): 56%

SMILES: O=C1c2ccccc2C(=O)N1CCCCCNCc1ccccc1
- inhibition (Homo sapiens): 10%

SMILES: CCN(CC)CCCCCCCN1C(=O)c2ccccc2C1=O
- inhibition (Homo sapiens): 39.4%

SMILES: CCN(CC)CCCCCCN1C(=O)c2ccccc2C1=O
- inhibition (Homo sapiens): 0%

SMILES: O=C1c2ccccc2C(=O)N1CCCNC1CCN(Cc2ccccc2)CC1
- inhibition (Homo sapiens): 10%
